From patent EP4707280A1, “1,4-CINEOLE DERIVATIVE AND INTERMEDIATE THEREOF, HERBICIDE CONTAINING SAID DERIVATIVE AS ACTIVE INGREDIENT, METHOD FOR USING HERBICIDE, AND METHOD FOR PREPARING AGROCHEMICAL COMPOSITION” (HOKKO CHEMICAL INDUSTRY CO., LTD., priority 2023, dated 2024)

Columns and labels:
Assay type in all cases: in vivo
Lindernia pyxidaria = experiment: Test Example 2: herbicidal effect test by application during growth period of paddy rice; conditions: 120 g per 10 ares, applied seven days after sowing, flooded pots, 14 days after application, read-out: weed inhibition rate
Outline: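 Greenhouse pots of flooded paddy soil, seeded shallowly with 30 seeds per weed, are treated on day 7 by dropper with diluted emulsifiable concentrate equal to 120 g a.i./10 a. Duplicate pots are scored for inhibition rate 14 days post-application.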

Digitaria ciliaris [1] = experiment: Test Example 3: herbicidal effect test by soil application in upland field; conditions: Digitaria ciliaris, 120 g per 10 ares, sprayed one day after sowing, 14 days after application, read-out: weed inhibition rate
Outline: (§1)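 Pre-emergence test: seeds mixed into top 1 cm of alluvial loam upland soil in pots; emulsifiable concentrate diluted in water sprayed on soil one day after sowing at 100 L/10 a, 120 g a.i./10 a. Weed inhibition rate (%) scored at 14 days, in duplicate.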

Echinochloa crus-galli [2] = experiment: as above; conditions: Echinochloa crus-galli, 120 g per 10 ares, sprayed one day after sowing, 14 days after application, read-out: weed inhibition rate
Outline: as §1

Echinochloa crus-galli [3] = experiment: Test Example 4: herbicidal effect test by stem and leaf treatment in upland field; conditions: Echinochloa crus-galli; 120 g per 10 ares; sprayed seven days after sowing, upland soil; 14 days after application; read-out: weed inhibition rate
[4] = system: Echinochloa crus-galli var. formosensis; experiment: Test Example 5: herbicidal effect test by soil application in paddy rice (low dose); conditions: Echinochloa crus-galli, soil, 336 h; 7.5 g per 10 ares; applied immediately after sowing, flooded pots; 14 days after application; read-out: weed inhibition rate
Outline: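 7.5 g a.i./10 a applied by dropper into ~3 cm floodwater immediately post-sowing (seeds 0–1 cm, 30 per species; puddled fertilized paddy soil, glasshouse). Duplicates; day-14 inhibition %.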

[5] = system: Echinochloa crus-galli var. formosensis; experiment: Test Example 6: herbicidal effect test by application during growth period of paddy rice (low dose); conditions: Echinochloa crus-galli; 7.5 g per 10 ares; applied seven days after sowing, flooded pots; 14 days after application; read-out: weed inhibition rate
Outline: (§2)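 Paddy-soil pots, flooded ~3 cm after sowing weed seeds at 0-1 cm depth, greenhouse-grown. Seven days after sowing, diluted emulsifiable concentrate applied by dropper at 7.5 g active ingredient per 10 ares. Weed inhibition rate (%) scored 14 days after application, in duplicate.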

Digitaria ciliaris [6] = experiment: Test Example 7: herbicidal effect test by soil application in upland field (low dose); conditions: Digitaria ciliaris, 7.5 g per 10 ares, sprayed one day after sowing, 14 days after application, read-out: weed inhibition rate
Outline: (§3)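 Duplicate pots of alluvial loam, seeds incorporated in the surface 1 cm. Soil surface sprayed 1 d after sowing (EC in water, 100 L/10 a; 7.5 g a.i./10 a). Endpoint: % inhibition, day 14.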

Amaranthus viridis = experiment: Test Example 3: herbicidal effect test by soil application in upland field; conditions: Amaranthus viridis, 120 g per 10 ares, sprayed one day after sowing, 14 days after application, read-out: weed inhibition rate
Outline: as §1

Chenopodium album = experiment: as above; conditions: 120 g per 10 ares, sprayed one day after sowing, 14 days after application, read-out: weed inhibition rate
Outline: as §1

Monochoria vaginalis = experiment: Test Example 6: herbicidal effect test by application during growth period of paddy rice (low dose); conditions: Pontederia vaginalis; 7.5 g per 10 ares; applied seven days after sowing, flooded pots; 14 days after application; read-out: weed inhibition rate
Outline: as §2

Scirpus juncoides = experiment: as above; conditions: Schoenoplectiella juncoides; 7.5 g per 10 ares; applied seven days after sowing, flooded pots; 14 days after application; read-out: weed inhibition rate
Outline: as §2

Echinochloa crus-galli [7] = experiment: Test Example 7: herbicidal effect test by soil application in upland field (low dose); conditions: Echinochloa crus-galli, 7.5 g per 10 ares, sprayed one day after sowing, 14 days after application, read-out: weed inhibition rate
Outline: as §3

COC1(OC)C[C@]2(C)O[C@@]1(C(C)C)C[C@H]2OCc1ccccc1F [1-935, (1R,4S,5R)-5-((2-fluorobenzyl)oxy)-1-isopropyl-2,2-dimethoxy-4-methyl-7-oxabicyclo[2.2.1]heptane]
≥ 80%: inhibition at 1200 g/ha (Lindernia pyxidaria) | inhibition at 1200 g/ha (Digitaria ciliaris [1]) | inhibition at 1200 g/ha (Echinochloa crus-galli [2]) | inhibition at 1200 g/ha (Echinochloa crus-galli [3]) | inhibition at 75 g/ha [4] | inhibition at 75 g/ha [5] | inhibition at 75 g/ha (Digitaria ciliaris [6])

CC(C)[C@]12C=C[C@](C)(O1)C(OCc1ccccc1F)C2 (mixture of isomers) [3-5, (1R,4S,SR)-5-[(2-fluorophenyl)methoxy]-4-methyl-1-isopropyl-7-oxabicyclo[2.2.1]hept-2-ene]
≥ 80%: inhibition at 1200 g/ha (Lindernia pyxidaria) | inhibition at 1200 g/ha (Amaranthus viridis) | inhibition at 1200 g/ha (Chenopodium album) | inhibition at 1200 g/ha (Digitaria ciliaris [1]) | inhibition at 1200 g/ha (Echinochloa crus-galli [2]) | inhibition at 1200 g/ha (Echinochloa crus-galli [3]) | inhibition at 75 g/ha [4] | inhibition at 75 g/ha [5] | inhibition at 75 g/ha (Monochoria vaginalis) | inhibition at 75 g/ha (Scirpus juncoides) | inhibition at 75 g/ha (Digitaria ciliaris [6]) | inhibition at 75 g/ha (Echinochloa crus-galli [7])

CC(C)[C@]12C[C@@H](OCc3ccc(F)cc3)[C@](C)(CC1=O)O2 [2-349, (1R,4S,5R)-5-((4-fluorobenzyl)oxy)-1-isopropyl-4-methyl-7-oxabicyclo[2.2.1]heptan-2-one]
≥ 80%: inhibition at 1200 g/ha (Lindernia pyxidaria) | inhibition at 1200 g/ha (Amaranthus viridis) | inhibition at 1200 g/ha (Chenopodium album) | inhibition at 1200 g/ha (Digitaria ciliaris [1]) | inhibition at 1200 g/ha (Echinochloa crus-galli [2]) | inhibition at 1200 g/ha (Echinochloa crus-galli [3]) | inhibition at 75 g/ha [4] | inhibition at 75 g/ha [5] | inhibition at 75 g/ha (Digitaria ciliaris [6]) | inhibition at 75 g/ha (Echinochloa crus-galli [7])

CC(C)[C@]12C[C@@H](OCc3ccccc3C#N)[C@](C)(C[C@@H]1Br)O2 [1-703, 2-[[(1S,2R,4R,5S)-5-bromo-1-methyl-4-isopropyl-7-oxabicyclo[2.2.1]heptan-2-yl]oxymethyl]benzonitrile]
≥ 80%: inhibition at 1200 g/ha (Lindernia pyxidaria) | inhibition at 1200 g/ha (Amaranthus viridis) | inhibition at 1200 g/ha (Digitaria ciliaris [1]) | inhibition at 1200 g/ha (Echinochloa crus-galli [2]) | inhibition at 1200 g/ha (Echinochloa crus-galli [3]) | inhibition at 75 g/ha [4] | inhibition at 75 g/ha [5] | inhibition at 75 g/ha (Echinochloa crus-galli [7])

CC(C)[C@]12C[C@@H](OCc3cccc(F)c3)[C@](C)(CC1=O)O2 [2-351, (1R,4S,5R)-5-((3-fluorobenzyl)oxy)-1-isopropyl-4-methyl-7-oxabicyclo[2.2.1]heptan-2-one]
≥ 80%: inhibition at 1200 g/ha (Lindernia pyxidaria) | inhibition at 1200 g/ha (Amaranthus viridis) | inhibition at 1200 g/ha (Digitaria ciliaris [1]) | inhibition at 1200 g/ha (Echinochloa crus-galli [2]) | inhibition at 1200 g/ha (Echinochloa crus-galli [3]) | inhibition at 75 g/ha [4] | inhibition at 75 g/ha [5] | inhibition at 75 g/ha (Echinochloa crus-galli [7])

CC(C)[C@]12C[C@@H](OCc3c(F)cccc3F)[C@](C)(CC1=O)O2 [2-20, (1R,4S,5R)-5-((2,6-difluorobenzyl)oxy)-1-isopropyl-4-methyl-7-oxabicyclo[2.2.1]heptan-2-one]
≥ 80%: inhibition at 1200 g/ha (Lindernia pyxidaria) | inhibition at 1200 g/ha (Amaranthus viridis) | inhibition at 1200 g/ha (Chenopodium album) | inhibition at 1200 g/ha (Digitaria ciliaris [1]) | inhibition at 1200 g/ha (Echinochloa crus-galli [2]) | inhibition at 1200 g/ha (Echinochloa crus-galli [3]) | inhibition at 75 g/ha [4] | inhibition at 75 g/ha [5] | inhibition at 75 g/ha (Digitaria ciliaris [6]) | inhibition at 75 g/ha (Echinochloa crus-galli [7])

CC(C)[C@]12C[C@@H](OCc3ccccc3Cl)[C@](C)(CC1=O)O2 [2-11, (1R,4S,5R)-5-((2-chlorobenzyl)oxy)-1-isopropyl-4-methyl-7-oxabicyclo[2.2.1]heptan-2-one]
≥ 80%: inhibition at 1200 g/ha (Lindernia pyxidaria) | inhibition at 1200 g/ha (Amaranthus viridis) | inhibition at 1200 g/ha (Chenopodium album) | inhibition at 1200 g/ha (Digitaria ciliaris [1]) | inhibition at 1200 g/ha (Echinochloa crus-galli [2]) | inhibition at 1200 g/ha (Echinochloa crus-galli [3]) | inhibition at 75 g/ha [4] | inhibition at 75 g/ha [5] | inhibition at 75 g/ha (Digitaria ciliaris [6]) | inhibition at 75 g/ha (Echinochloa crus-galli [7])

Cc1cccc(C)c1CO[C@@H]1C[C@]2(C(C)C)O[C@@]1(C)CC2=O [2-5, (1R,4S,5R)-5-((2,6-dimethylbenzyl)oxy)-1-isopropyl-4-methyl-7-oxabicyclo[2.2.1]heptan-2-one]
≥ 80%: inhibition at 1200 g/ha (Lindernia pyxidaria) | inhibition at 1200 g/ha (Digitaria ciliaris [1]) | inhibition at 1200 g/ha (Echinochloa crus-galli [2]) | inhibition at 1200 g/ha (Echinochloa crus-galli [3]) | inhibition at 75 g/ha [4] | inhibition at 75 g/ha (Digitaria ciliaris [6]) | inhibition at 75 g/ha (Echinochloa crus-galli [7])

CC(C)[C@]12C[C@@H](OCc3ccccc3F)[C@](C)(CC1=O)O2 [2-9, (1R,4S,5R)-5-((2-fluorobenzyl)oxy)-1-isopropyl-4-methyl-7-oxabicyclo[2.2.1]heptan-2-one]
≥ 80%: inhibition at 1200 g/ha (Amaranthus viridis) | inhibition at 1200 g/ha (Chenopodium album) | inhibition at 1200 g/ha (Digitaria ciliaris [1]) | inhibition at 1200 g/ha (Echinochloa crus-galli [2]) | inhibition at 1200 g/ha (Echinochloa crus-galli [3]) | inhibition at 75 g/ha [4] | inhibition at 75 g/ha [5] | inhibition at 75 g/ha (Monochoria vaginalis) | inhibition at 75 g/ha (Scirpus juncoides) | inhibition at 75 g/ha (Digitaria ciliaris [6]) | inhibition at 75 g/ha (Echinochloa crus-galli [7])

Cc1ccccc1CO[C@@H]1C[C@]2(C(C)C)O[C@@]1(C)CC2=O [2-3, (1R,4S,5R)-1-isopropyl-4-methyl-5-((2-methylbenzyl)oxy)-7-oxabicyclo[2.2.1]heptan-2-one]
≥ 80%: inhibition at 1200 g/ha (Lindernia pyxidaria) | inhibition at 1200 g/ha (Chenopodium album) | inhibition at 1200 g/ha (Digitaria ciliaris [1]) | inhibition at 1200 g/ha (Echinochloa crus-galli [2]) | inhibition at 1200 g/ha (Echinochloa crus-galli [3]) | inhibition at 75 g/ha [4] | inhibition at 75 g/ha [5] | inhibition at 75 g/ha (Monochoria vaginalis) | inhibition at 75 g/ha (Scirpus juncoides) | inhibition at 75 g/ha (Digitaria ciliaris [6]) | inhibition at 75 g/ha (Echinochloa crus-galli [7])

Cc1ccccc1CO[C@@H]1C[C@]2(C(C)C)O[C@@]1(C)C[C@@H]2F [1-2, (1R,2S,4S,5R)-2-fluoro-1-isopropyl-4-methyl-5-((2-methylbenzyl)oxy)-7-oxabicyclo[2.2.1]heptane]
≥ 80%: inhibition at 1200 g/ha (Lindernia pyxidaria) | inhibition at 1200 g/ha (Chenopodium album) | inhibition at 1200 g/ha (Digitaria ciliaris [1]) | inhibition at 1200 g/ha (Echinochloa crus-galli [2]) | inhibition at 1200 g/ha (Echinochloa crus-galli [3]) | inhibition at 75 g/ha [4] | inhibition at 75 g/ha [5] | inhibition at 75 g/ha (Monochoria vaginalis) | inhibition at 75 g/ha (Scirpus juncoides) | inhibition at 75 g/ha (Digitaria ciliaris [6]) | inhibition at 75 g/ha (Echinochloa crus-galli [7])

CO[C@H]1C[C@]2(C)O[C@@]1(C(C)C)C[C@H]2OCc1ccccc1F [1-156, (1S,2R,4R,5S)-2-((2-fluorobenzyl)oxy)-4-isopropyl-5-methoxy-1-methyl-7-oxabicyclo[2.2.1]heptane]
≥ 80%: inhibition at 1200 g/ha (Amaranthus viridis) | inhibition at 1200 g/ha (Chenopodium album) | inhibition at 1200 g/ha (Digitaria ciliaris [1]) | inhibition at 1200 g/ha (Echinochloa crus-galli [2]) | inhibition at 1200 g/ha (Echinochloa crus-galli [3]) | inhibition at 75 g/ha [4] | inhibition at 75 g/ha [5] | inhibition at 75 g/ha (Monochoria vaginalis) | inhibition at 75 g/ha (Scirpus juncoides) | inhibition at 75 g/ha (Digitaria ciliaris [6]) | inhibition at 75 g/ha (Echinochloa crus-galli [7])

CC(C)=CCO[C@@H]1C[C@]2(C(C)C)O[C@@]1(C)C[C@@H]2Br [1-672, (1S,2R,4R,5S)-5-bromo-1-methyl-2-(3-methylbut-2-enoxy)-4-isopropyl-7-oxabicyclo[2.2.1]heptane]
≥ 80%: inhibition at 1200 g/ha (Lindernia pyxidaria) | inhibition at 1200 g/ha (Amaranthus viridis) | inhibition at 1200 g/ha (Digitaria ciliaris [1]) | inhibition at 1200 g/ha (Echinochloa crus-galli [2]) | inhibition at 1200 g/ha (Echinochloa crus-galli [3]) | inhibition at 75 g/ha [4] | inhibition at 75 g/ha [5] | inhibition at 75 g/ha (Monochoria vaginalis)

CC(C)[C@]12C[C@@H](OCc3ccccc3F)[C@](C)(C[C@@H]1Br)O2 [1-19, (1S,2R,4R,5S)-5-bromo-2-[(2-fluorophenyl)methoxy]-1-methyl-4-isopropyl-7-oxabicyclo[2.2.1]heptane]
≥ 80%: inhibition at 1200 g/ha (Lindernia pyxidaria) | inhibition at 1200 g/ha (Chenopodium album) | inhibition at 1200 g/ha (Digitaria ciliaris [1]) | inhibition at 1200 g/ha (Echinochloa crus-galli [2]) | inhibition at 1200 g/ha (Echinochloa crus-galli [3]) | inhibition at 75 g/ha [4] | inhibition at 75 g/ha [5] | inhibition at 75 g/ha (Digitaria ciliaris [6]) | inhibition at 75 g/ha (Echinochloa crus-galli [7])
